From ChEMBL document CHEMBL5260810, “Inhibition of bromodomain-containing protein 9 for the prevention of epigenetically-defined drug resistance” (Bioorg Med Chem Lett, 2017)

Key:
[1] = biological target: T1, Bromodomain-containing protein 4 (Homo sapiens, UniProt O60885); assay: Displacement of biotinylated small-molecule ligand from recombinant His-tagged BRD4 bromodomain 2 (unknown origin) measured after 10 mins by TR-FRET assay
[2] = biological target: Chromatin remodeling regulator CECR2 (Homo sapiens, UniProt Q9BXF3); assay: Displacement of biotinylated small-molecule ligand from recombinant His-tagged CECR2 (unknown origin) measured after 10 mins by TR-FRET assay
[3] = system: NCI-H1993; assay: Cytotoxicity against human NCI-H1993 cells measured after 8 days; type: functional, cell-based; conditions: NCI-H1993, 192 h
[4] = system: SK-MES-1; assay: Cytotoxicity against human SK-MES-1 cells measured after 8 days; type: functional, cell-based; conditions: SK-MES-1, 192 h
[5] = system: OCI-LY19; assay: Cytotoxicity against human OCILY19 cells measured after 8 days; type: functional, cell-based; conditions: OCI-LY19, 192 h
[6] = system: EVSA-T; assay: Cytotoxicity against human EVSA-T cells measured after 8 days; type: functional, cell-based; conditions: 192 h
[7] = system: HCC1937; assay: Cytotoxicity against human HCC1937 cells measured after 8 days; type: functional, cell-based; conditions: HCC1937, 192 h
[8] = system: HCC1954; assay: Cytotoxicity against human HCC1954 cells measured after 8 days; type: functional, cell-based; conditions: HCC1954, 192 h
[9] = Cytotoxicity against human OVCAR433 cells measured after 8 days; type: functional, cell-based; conditions: OVCAR433, 192 h
[10] = system: MDA-MB-468; assay: Cytotoxicity against human MDA-MB-468 cells measured after 8 days; type: functional, cell-based; conditions: MDA-MB-468, 192 h
[11] = system: DAN-G; assay: Cytotoxicity against human DAN-G cells measured after 8 days; type: functional, cell-based; conditions: 192 h
[12] = system: HCT-116; assay: Cytotoxicity against human HCT-116 cells measured after 8 days; type: functional, cell-based; conditions: HCT-116, 192 h
[13] = Cytotoxicity against human HT115 cells measured after 8 days; type: functional, cell-based; conditions: HT115, 192 h
[14] = system: SK-MEL-28; assay: Cytotoxicity against human SK-MEL-28 cells measured after 8 days; type: functional, cell-based; conditions: SK-MEL-28, 192 h
[15] = Cytotoxicity against human HCC4011 cells measured after 8 days; type: functional, cell-based; conditions: HCC4011, 192 h
[16] = biological target: Bromodomain-containing protein 3 (Homo sapiens, UniProt Q15059); assay: Binding affinity to BRD3 bromodomain 1/2 (unknown origin) by BROMOscan assay
Sequence of Bromodomain-containing protein 3 (Q15059 whole entry, the tested form may be a part, canonical isoform): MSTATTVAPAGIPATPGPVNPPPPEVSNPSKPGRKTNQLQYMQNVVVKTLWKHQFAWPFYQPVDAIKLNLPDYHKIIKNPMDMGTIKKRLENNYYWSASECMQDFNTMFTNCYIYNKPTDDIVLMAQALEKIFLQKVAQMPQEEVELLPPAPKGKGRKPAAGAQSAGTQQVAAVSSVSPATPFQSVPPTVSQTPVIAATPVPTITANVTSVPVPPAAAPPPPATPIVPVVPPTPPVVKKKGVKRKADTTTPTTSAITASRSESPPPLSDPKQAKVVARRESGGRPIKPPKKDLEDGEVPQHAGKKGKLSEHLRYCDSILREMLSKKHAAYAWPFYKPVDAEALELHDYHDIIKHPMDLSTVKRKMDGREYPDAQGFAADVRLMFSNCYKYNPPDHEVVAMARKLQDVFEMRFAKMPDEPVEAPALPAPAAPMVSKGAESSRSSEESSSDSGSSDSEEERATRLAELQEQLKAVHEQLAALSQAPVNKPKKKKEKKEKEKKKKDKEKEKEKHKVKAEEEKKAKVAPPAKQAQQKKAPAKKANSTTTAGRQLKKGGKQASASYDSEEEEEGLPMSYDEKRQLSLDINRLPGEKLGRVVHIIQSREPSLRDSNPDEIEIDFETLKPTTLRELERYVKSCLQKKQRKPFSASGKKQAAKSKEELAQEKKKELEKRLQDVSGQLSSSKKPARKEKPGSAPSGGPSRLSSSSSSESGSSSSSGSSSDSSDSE

[17] = biological target: T1, Bromodomain-containing protein 4; assay: Binding affinity to human partial length BRD4 bromodomain 2 long isoform (K333 to E460 residues) expressed in bacterial expression system by BROMOscan assay
[18] = biological target: Protein polybromo-1 (Homo sapiens, UniProt Q86U86); assay: Binding affinity to human partial length PBRM1 bromodomain 1 (S178 to E291 residues) expressed in bacterial expression system by BROMOscan assay
Sequence of Protein polybromo-1 (Q86U86 whole entry, the tested form may be a part): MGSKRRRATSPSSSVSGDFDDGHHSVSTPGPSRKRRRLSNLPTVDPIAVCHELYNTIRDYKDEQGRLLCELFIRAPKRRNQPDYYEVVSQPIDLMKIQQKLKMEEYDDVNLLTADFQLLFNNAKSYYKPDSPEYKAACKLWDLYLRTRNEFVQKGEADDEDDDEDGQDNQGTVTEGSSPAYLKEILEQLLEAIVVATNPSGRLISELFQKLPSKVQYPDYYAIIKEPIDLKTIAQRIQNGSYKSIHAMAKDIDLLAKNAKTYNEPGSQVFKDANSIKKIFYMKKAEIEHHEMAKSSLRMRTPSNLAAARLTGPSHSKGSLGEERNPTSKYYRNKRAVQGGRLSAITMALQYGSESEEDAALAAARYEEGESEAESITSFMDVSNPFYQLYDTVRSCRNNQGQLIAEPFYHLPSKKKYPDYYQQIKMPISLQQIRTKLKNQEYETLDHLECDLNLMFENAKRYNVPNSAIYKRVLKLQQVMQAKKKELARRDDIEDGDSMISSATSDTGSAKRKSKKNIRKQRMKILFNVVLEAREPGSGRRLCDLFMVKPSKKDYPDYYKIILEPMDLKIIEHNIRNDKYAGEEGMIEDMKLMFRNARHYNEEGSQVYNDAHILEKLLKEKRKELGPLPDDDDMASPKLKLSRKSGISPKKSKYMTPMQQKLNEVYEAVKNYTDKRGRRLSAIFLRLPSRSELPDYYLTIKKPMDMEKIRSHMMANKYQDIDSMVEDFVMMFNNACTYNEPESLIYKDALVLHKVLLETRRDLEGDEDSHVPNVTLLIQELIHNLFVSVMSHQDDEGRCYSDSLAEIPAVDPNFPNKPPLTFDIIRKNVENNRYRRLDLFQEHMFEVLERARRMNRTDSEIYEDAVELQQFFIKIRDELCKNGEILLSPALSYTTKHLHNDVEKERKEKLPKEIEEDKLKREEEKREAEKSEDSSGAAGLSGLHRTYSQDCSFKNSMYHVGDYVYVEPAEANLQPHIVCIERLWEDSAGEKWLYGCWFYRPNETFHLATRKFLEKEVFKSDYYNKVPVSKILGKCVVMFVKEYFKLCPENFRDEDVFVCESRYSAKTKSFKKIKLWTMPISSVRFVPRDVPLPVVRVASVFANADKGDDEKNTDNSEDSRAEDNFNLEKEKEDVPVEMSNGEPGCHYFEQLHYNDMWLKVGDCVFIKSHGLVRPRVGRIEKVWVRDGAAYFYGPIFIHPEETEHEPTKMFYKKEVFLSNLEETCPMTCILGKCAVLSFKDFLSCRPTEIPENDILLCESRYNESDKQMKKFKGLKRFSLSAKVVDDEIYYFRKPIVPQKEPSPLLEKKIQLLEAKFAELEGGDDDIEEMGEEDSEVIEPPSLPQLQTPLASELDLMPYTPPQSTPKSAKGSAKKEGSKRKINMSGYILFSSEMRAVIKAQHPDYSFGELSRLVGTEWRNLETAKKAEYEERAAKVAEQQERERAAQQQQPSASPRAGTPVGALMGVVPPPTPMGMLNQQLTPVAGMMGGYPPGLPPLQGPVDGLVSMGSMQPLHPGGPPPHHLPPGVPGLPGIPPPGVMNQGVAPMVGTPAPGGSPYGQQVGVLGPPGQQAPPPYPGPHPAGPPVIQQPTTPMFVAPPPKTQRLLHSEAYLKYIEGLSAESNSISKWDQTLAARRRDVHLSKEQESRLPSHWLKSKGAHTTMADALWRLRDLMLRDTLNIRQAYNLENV

[19] = biological target: Transcription initiation factor TFIID subunit 1 (Homo sapiens, UniProt P21675); assay: Binding affinity to human partial length TAF1 bromodomain 2 (D1521 to D1656 residues) expressed in bacterial expression system by BROMOscan assay
[20] = biological target: T2, E3 ubiquitin-protein ligase TRIM33 (Homo sapiens, UniProt Q9UPN9); assay: Binding affinity to human partial length TRIM33 (D882 to A1087 residues) expressed in bacterial expression system by BROMOscan assay
T2 sequence (Q9UPN9 whole entry): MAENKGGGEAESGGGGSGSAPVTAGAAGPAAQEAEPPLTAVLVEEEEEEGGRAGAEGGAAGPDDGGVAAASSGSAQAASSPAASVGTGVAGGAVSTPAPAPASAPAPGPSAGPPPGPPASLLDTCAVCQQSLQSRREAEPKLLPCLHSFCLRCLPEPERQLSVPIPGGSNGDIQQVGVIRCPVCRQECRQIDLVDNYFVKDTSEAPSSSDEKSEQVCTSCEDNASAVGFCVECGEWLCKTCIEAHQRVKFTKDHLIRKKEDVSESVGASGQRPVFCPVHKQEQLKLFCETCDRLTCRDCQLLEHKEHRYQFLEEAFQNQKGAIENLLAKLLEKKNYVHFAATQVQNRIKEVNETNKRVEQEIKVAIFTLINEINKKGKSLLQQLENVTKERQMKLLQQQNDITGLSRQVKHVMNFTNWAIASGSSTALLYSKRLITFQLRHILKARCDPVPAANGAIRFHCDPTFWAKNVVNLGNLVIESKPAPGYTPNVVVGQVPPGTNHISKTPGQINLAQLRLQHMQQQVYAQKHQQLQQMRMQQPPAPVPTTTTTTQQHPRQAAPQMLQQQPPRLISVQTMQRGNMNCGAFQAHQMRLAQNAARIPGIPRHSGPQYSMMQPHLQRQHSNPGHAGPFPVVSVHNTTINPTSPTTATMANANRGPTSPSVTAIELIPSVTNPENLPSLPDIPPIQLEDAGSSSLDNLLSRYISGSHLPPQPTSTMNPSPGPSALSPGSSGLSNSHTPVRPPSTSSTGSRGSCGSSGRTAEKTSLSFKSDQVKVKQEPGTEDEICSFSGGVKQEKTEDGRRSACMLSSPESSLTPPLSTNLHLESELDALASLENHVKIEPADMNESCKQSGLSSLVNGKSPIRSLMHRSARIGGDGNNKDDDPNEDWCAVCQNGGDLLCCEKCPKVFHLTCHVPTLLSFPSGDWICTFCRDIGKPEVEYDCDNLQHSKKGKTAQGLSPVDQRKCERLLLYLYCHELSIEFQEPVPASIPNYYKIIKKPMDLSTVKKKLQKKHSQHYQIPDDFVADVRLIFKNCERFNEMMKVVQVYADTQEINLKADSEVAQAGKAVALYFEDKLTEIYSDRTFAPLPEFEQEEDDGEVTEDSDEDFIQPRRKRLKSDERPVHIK

[21] = biological target: Tyrosine-protein kinase JAK1 (Homo sapiens) (UniProt P23458); assay: Inhibition of JAK1 (unknown origin) at 1 uM relative to control
Sequence of Tyrosine-protein kinase JAK1 (Homo sapiens) (P23458 whole entry): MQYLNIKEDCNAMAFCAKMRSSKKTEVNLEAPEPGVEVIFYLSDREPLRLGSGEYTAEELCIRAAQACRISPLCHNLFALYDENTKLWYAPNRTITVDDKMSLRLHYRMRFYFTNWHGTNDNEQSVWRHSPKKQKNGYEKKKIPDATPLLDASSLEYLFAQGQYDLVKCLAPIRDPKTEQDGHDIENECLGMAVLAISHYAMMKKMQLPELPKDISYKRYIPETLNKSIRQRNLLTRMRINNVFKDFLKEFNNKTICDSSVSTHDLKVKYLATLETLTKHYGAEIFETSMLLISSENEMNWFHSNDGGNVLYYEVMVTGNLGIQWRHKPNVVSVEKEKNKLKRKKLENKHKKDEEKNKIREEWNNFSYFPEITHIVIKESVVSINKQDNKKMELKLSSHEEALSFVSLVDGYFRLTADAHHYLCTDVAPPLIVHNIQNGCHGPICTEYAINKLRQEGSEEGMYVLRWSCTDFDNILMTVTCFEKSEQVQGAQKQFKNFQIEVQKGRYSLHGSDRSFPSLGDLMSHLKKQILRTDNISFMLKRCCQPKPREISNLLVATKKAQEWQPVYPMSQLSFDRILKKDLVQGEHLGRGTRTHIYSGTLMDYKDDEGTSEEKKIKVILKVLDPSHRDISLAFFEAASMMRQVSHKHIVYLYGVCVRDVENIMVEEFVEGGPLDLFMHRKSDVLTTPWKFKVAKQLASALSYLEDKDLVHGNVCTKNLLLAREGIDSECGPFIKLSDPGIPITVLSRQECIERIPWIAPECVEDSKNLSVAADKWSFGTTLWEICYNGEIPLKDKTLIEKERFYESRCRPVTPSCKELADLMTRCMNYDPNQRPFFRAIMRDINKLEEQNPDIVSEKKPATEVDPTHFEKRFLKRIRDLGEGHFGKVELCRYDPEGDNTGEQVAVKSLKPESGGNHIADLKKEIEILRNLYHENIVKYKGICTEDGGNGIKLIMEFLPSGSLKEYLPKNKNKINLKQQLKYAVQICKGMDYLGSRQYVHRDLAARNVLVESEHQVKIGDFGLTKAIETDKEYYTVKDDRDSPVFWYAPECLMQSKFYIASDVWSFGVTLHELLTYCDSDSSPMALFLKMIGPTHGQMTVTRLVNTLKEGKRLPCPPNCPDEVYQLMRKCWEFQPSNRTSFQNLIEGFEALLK

[22] = species: Homo sapiens; assay: Inhibition of JAK1alpha1 (unknown origin) at 1 uM relative to control
[23] = biological target: Sodium-dependent noradrenaline transporter (Homo sapiens) (UniProt P23975); assay: Displacement of [3H]nisoxetine from recombinant human norepinephrine transporter at 10 uM after 120 mins by scintillation counting analysis relative to control
Sequence of Sodium-dependent noradrenaline transporter (Homo sapiens) (P23975 whole entry): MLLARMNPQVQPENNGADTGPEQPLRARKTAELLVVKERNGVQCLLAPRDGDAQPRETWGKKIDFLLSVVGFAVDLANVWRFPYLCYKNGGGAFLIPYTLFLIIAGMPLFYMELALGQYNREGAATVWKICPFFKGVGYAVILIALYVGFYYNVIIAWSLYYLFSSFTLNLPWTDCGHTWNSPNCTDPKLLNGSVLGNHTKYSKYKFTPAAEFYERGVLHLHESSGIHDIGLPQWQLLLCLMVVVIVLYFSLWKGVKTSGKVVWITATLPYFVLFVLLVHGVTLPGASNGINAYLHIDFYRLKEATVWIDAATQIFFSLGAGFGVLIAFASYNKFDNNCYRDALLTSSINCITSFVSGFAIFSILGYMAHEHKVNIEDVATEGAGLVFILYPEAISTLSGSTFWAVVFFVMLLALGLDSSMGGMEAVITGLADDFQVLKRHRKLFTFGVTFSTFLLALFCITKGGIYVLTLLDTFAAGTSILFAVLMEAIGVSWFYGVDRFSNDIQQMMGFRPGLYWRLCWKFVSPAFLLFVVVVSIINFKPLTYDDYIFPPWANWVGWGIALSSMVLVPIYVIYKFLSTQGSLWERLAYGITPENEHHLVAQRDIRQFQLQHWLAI

[24] = biological target: Sodium-dependent dopamine transporter (Homo sapiens) (UniProt Q01959); assay: Displacement of […] from recombinant human Dopamine transporter at 10 uM after 120 mins by scintillation counting analysis relative to control
Sequence of Sodium-dependent dopamine transporter (Homo sapiens) (Q01959 whole entry): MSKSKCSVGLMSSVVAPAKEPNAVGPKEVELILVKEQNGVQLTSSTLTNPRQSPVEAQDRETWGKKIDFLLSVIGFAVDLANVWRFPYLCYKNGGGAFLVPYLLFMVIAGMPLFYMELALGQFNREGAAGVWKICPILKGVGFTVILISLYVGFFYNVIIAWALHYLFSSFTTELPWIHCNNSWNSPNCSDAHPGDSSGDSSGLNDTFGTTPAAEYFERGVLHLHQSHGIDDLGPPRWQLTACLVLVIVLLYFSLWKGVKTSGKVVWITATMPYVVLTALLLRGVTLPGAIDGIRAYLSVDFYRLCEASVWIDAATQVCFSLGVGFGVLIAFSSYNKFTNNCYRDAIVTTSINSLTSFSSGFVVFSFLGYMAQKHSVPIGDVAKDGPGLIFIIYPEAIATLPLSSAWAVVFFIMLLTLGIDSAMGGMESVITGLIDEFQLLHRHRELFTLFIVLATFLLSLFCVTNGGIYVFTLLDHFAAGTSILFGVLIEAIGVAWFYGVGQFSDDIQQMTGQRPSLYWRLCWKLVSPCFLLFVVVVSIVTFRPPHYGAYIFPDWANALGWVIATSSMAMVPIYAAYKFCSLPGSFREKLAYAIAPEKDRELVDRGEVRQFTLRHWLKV

C/C=C/Cn1cc(-c2ccc(C(=O)N3CCOCC3)cc2)c2cc[nH]c2c1=O
IC50 [1]: 8.3 µM
IC50 [2]: 2.9 µM
IC50 [3]: 20 µM
IC50 [4]: 20 µM
IC50 [5]: 20 µM
IC50 [6]: 20 µM
IC50 [7]: 20 µM
IC50 [8]: 20 µM
IC50 [9]: 20 µM
IC50 [10]: 20 µM
IC50 [11]: 20 µM
IC50 [12]: 20 µM
IC50 [13]: 20 µM
IC50 [14]: 20 µM
IC50 [15]: 20 µM
Kd [16]: 4.4 µM
Kd [17]: 6.6 µM
Kd [18]: > 10 µM
Kd [19]: 0.31 µM
Kd [20]: > 10 µM
inhibition [21]: -3.9%
inhibition [22]: 25.3%
Activity [23]: -3%
Activity [24]: 15%

C/C=C/Cn1cc(-c2ccc(C(C)(C)O)cc2OC)c2cc[nH]c2c1=O
IC50 [1]: > 20 µM
IC50 [2]: > 20 µM
IC50 [3]: 20 µM
IC50 [4]: 20 µM
IC50 [5]: 14.9 µM
IC50 [6]: 20 µM
IC50 [7]: 20 µM
IC50 [8]: 20 µM
IC50 [9]: 20 µM
IC50 [10]: 20 µM
IC50 [11]: 20 µM
IC50 [12]: 20 µM
IC50 [13]: 20 µM
IC50 [14]: 20 µM
IC50 [15]: 20 µM
Kd [16]: 5.5 µM
Kd [17]: 3.7 µM
Kd [18]: 7.6 µM
Kd [19]: > 10 µM
Kd [20]: > 10 µM
inhibition [21]: -2.5%
inhibition [22]: -4%
Activity [23]: -6%
Activity [24]: 15%

C/C=C/Cn1cc(-c2cc(OC)c(C(=O)N3CCOCC3)cc2OC)c2cc(C)[nH]c2c1=O
IC50 [1]: > 20 µM
IC50 [2]: 2.4 µM
IC50 [3]: 2 µM
IC50 [4]: 2 µM
IC50 [5]: 2 µM
IC50 [6]: 2 µM
IC50 [7]: 2 µM
IC50 [8]: 2 µM
IC50 [9]: 2 µM
IC50 [10]: 2 µM
IC50 [11]: 2 µM
IC50 [12]: 2 µM
IC50 [13]: 2 µM
IC50 [14]: 2 µM
IC50 [15]: 2 µM
Kd [16]: > 10 µM
Kd [17]: > 10 µM
Kd [18]: > 10 µM
Kd [19]: > 10 µM
Kd [20]: > 5 µM
inhibition [21]: -4.5%
inhibition [22]: -9.5%
Activity [23]: 0%
Activity [24]: 11%

C/C=C/Cn1cc(-c2cc(OC)c(C(C)(C)O)cc2OC)c2cc(C)[nH]c2c1=O
IC50 [1]: > 20 µM
IC50 [2]: 4.3 µM
Kd [16]: > 10 µM
Kd [17]: > 10 µM
Kd [18]: > 10 µM
Kd [19]: > 10 µM
Kd [20]: > 10 µM
